From paper PMC12397910

Tests used:
[1] = system: Bcl3 G6A (DNA, G4) CGGGGGGGCCGGAGGCGGGGAGGCGGGCGG; test: CD melting at 284 nm; details: 100 mM K+ (KCl); 10 mM Tris-HCl pH 7.5; 20 μM ligand, ligand:G4 2:1; stabilised
[2] = system: Bcl3 GI/IVA (DNA, G4) CGGAAAGGCCGGGGGCGGGGAGGCAAACGG; test: CD melting at 284 nm; details: 100 mM K+ (KCl); 10 mM Tris-HCl pH 7.5; 20 μM ligand, ligand:G4 2:1; stabilised
[3] = system: Bcl3 G6/8A (DNA, G4) CGGGGGGGCCGGAGGCGGAGAGGCGGGCGG; test: CD melting at 284 nm; details: 100 mM K+ (KCl); 10 mM Tris-HCl pH 7.5; 20 μM ligand, ligand:G4 2:1; stabilised
[4] = system: Bcl3 G6/8A (DNA, G4) CGGGGGGGCCGGAGGCGGAGAGGCGGGCGG; test: CD melting at 264 nm; details: 100 mM K+ (KCl); 10 mM Tris-HCl pH 7.5; 20 μM ligand, ligand:G4 2:1; stabilised
[5] = system: Bcl3 G6A (DNA, G4) CGGGGGGGCCGGAGGCGGGGAGGCGGGCGG; test: CD melting at 264 nm; details: 100 mM K+ (KCl); 10 mM Tris-HCl pH 7.5; 20 μM ligand, ligand:G4 2:1; stabilised
[6] = system: Bcl3 GI/IVA (DNA, G4) CGGAAAGGCCGGGGGCGGGGAGGCAAACGG; test: CD melting at 264 nm; details: 100 mM K+ (KCl); 10 mM Tris-HCl pH 7.5; 20 μM ligand, ligand:G4 2:1; stabilised
[7] = system: Bcl3 promoter WT (30-nt, G-rich positive strand) (DNA, G4) CGGGGGGGCCGGGGGCGGGGAGGCGGGCGG; test: ThT fluorescence turn-on (490 nm); details: 100 mM K+ (KCl); 10 mM Tris-HCl pH 7.5, 25 °C; 0.5 μM ThT, 1 μM DNA
[8] = system: dsBcl3 G6/8A (DNA, duplex) CAGGAAACCCCTGGGGCGTACGGGTGGCCCCGGGGGGGCCGGAGGCGGAGAGGCGGGCGGCCGGCACCGCCCCGGCCGACAAAAGTCCCT/AGGGACTTTTGTCGGCCGGGGCGGTGCCGGCCGCCCGCCTCTCCGCCTCCGGCCCCCCCGGGGCCACCCGTACGCCCCAGGGGTTTCCTG; test: NMM fluorescence turn-on (610 nm); details: 1 mM K+ (KCl); 10% PEG8000; also 100 mM KCl without PEG; 25 °C; 1 μM NMM, 2 μM DNA; no peak
[9] = system: dsBcl3 GI/IVA (DNA, duplex) CAGGAAACCCCTGGGGCGTACGGGTGGCCCCGGAAAGGCCGGGGGCGGGGAGGCAAACGGCCGGCACCGCCCCGGCCGACAAAAGTCCCT/AGGGACTTTTGTCGGCCGGGGCGGTGCCGGCCGTTTGCCTCCCCGCCCCCGGCCTTTCCGGGGCCACCCGTACGCCCCAGGGGTTTCCTG; test: NMM fluorescence turn-on (610 nm); details: 1 mM K+ (KCl); 10% PEG8000; also 100 mM KCl without PEG; 25 °C; 1 μM NMM, 2 μM DNA; no peak
[10] = system: dsBcl3 WT (90-bp dsBcl3-G4) (DNA, G4) CAGGAAACCCCTGGGGCGTACGGGTGGCCCCGGGGGGGCCGGGGGCGGGGAGGCGGGCGGCCGGCACCGCCCCGGCCGACAAAAGTCCCT/AGGGACTTTTGTCGGCCGGGGCGGTGCCGGCCGCCCGCCTCCCCGCCCCCGGCCCCCCCGGGGCCACCCGTACGCCCCAGGGGTTTCCTG; test: NMM fluorescence turn-on (610 nm); details: 1 mM K+ (KCl); 10% PEG8000; also 100 mM KCl without PEG; 25 °C; 1 μM NMM, 2 μM DNA
SP1 [11] = target: T1, SP1 (UniProt P08047 1-785); test: EMSA; annealed with KCl; Kd only in Fig S13B; EMSA: 10 mM HEPES-NaOH pH 7.3, 50 mM KCl, 5 mM MgCl2, 0.5 mM DTT, 5% glycerol, 0.5 mg/mL BSA, 1 h, gel at 4 C; BLI: PBS, room temperature; oligos annealed in 10 mM Tris-HCl pH 7.5 +/- 100 mM KCl; details: protein: commercial; G4
T1 sequence (P08047 whole entry): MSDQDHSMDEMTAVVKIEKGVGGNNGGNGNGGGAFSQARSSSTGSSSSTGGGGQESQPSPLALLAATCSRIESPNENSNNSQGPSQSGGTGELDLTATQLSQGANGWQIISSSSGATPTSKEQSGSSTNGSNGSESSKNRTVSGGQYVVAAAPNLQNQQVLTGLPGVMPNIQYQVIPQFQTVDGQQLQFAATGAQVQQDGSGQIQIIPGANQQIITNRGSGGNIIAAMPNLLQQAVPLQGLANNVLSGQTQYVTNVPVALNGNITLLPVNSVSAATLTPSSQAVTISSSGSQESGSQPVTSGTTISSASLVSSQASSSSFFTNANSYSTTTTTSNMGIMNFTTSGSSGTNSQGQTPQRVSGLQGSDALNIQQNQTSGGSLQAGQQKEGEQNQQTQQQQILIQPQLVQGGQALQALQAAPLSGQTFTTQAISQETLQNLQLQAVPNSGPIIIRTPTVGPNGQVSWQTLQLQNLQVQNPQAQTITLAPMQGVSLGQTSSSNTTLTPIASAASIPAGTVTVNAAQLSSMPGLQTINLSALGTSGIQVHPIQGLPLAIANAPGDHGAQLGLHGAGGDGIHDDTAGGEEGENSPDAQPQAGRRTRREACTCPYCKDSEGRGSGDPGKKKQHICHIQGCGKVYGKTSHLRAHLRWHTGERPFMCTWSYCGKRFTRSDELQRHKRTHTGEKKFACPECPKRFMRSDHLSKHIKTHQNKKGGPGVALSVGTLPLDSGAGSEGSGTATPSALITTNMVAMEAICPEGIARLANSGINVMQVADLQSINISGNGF

SP1 [12] = target: T1, SP1; test: BLI; annealed in 100 mM KCl; local 1:1 fit at 457 nM SP1; not truly 1:1; EMSA: 10 mM HEPES-NaOH pH 7.3, 50 mM KCl, 5 mM MgCl2, 0.5 mM DTT, 5% glycerol, 0.5 mg/mL BSA, 1 h, gel at 4 C; BLI: PBS, room temperature; oligos annealed in 10 mM Tris-HCl pH 7.5 +/- 100 mM KCl; details: protein: commercial; label: 5' biotin (BLI); G4, parallel, intra- and intermolecular
SP1 [13] = target: T1, SP1; test: EMSA; annealed in 100 mM KCl; Hill 4.42; EMSA: 10 mM HEPES-NaOH pH 7.3, 50 mM KCl, 5 mM MgCl2, 0.5 mM DTT, 5% glycerol, 0.5 mg/mL BSA, 1 h, gel at 4 C; BLI: PBS, room temperature; oligos annealed in 10 mM Tris-HCl pH 7.5 +/- 100 mM KCl; details: protein: commercial; label: 5' biotin (BLI); G4, parallel, intra- and intermolecular
SP1 [14] = target: T1, SP1; test: EMSA; annealed in KCl, purified Inter 1; Hill 3.53; EMSA: 10 mM HEPES-NaOH pH 7.3, 50 mM KCl, 5 mM MgCl2, 0.5 mM DTT, 5% glycerol, 0.5 mg/mL BSA, 1 h, gel at 4 C; BLI: PBS, room temperature; oligos annealed in 10 mM Tris-HCl pH 7.5 +/- 100 mM KCl; details: protein: commercial
SP1 [15] = target: T1, SP1; test: EMSA; annealed without KCl; EMSA: 10 mM HEPES-NaOH pH 7.3, 50 mM KCl, 5 mM MgCl2, 0.5 mM DTT, 5% glycerol, 0.5 mg/mL BSA, 1 h, gel at 4 C; BLI: PBS, room temperature; oligos annealed in 10 mM Tris-HCl pH 7.5 +/- 100 mM KCl; details: protein: commercial; single strand

Q: Which binding [1] does the source give for `C[n+]1ccc(-c2c3nc(c(-c4cc[n+](C)cc4)c4ccc([nH]4)c(-c4cc[n+](C)cc4)c4nc(c(-c5cc[n+](C)cc5)c5ccc2[nH]5)C=C4)C=C3)cc1` here?
A: yes

Q: And the binding [2]?
A: yes

Q: What about the binding [3] of the same molecule?
A: yes

Q: Which binding [4] does the source give for `NCCOc1cc(C(=O)Nc2cc(OCCN)c3ccccc3n2)nc(C(=O)Nc2cc(OCCN)c3ccccc3n2)c1` here?
A: yes

Q: What about the binding [5] of the same molecule?
A: yes

Q: And the binding [6]?
A: yes

Q: For `Cc1ccc2c(c1)sc(-c1ccc(N(C)C)cc1)[n+]2C`, which binding [7] is on record?
A: yes

Q: With `CCc1c(C)c2cc3nc(cc4nc(cc5c(CC)c(C)c(cc1[nH]2)n5C)C(C)=C4CCC(=O)O)C(CCC(=O)O)=C3C` as the molecule, how does the binding [8] read?
A: no

Q: What about the binding [9] of the same molecule?
A: no

Q: What about the binding [10] of the same molecule?
A: yes

Q: Does GGGUCCGGGCCGGGUGGG (structured_RNA) [G4 RNA (KCl)] bind (SP1 [11])?
A: binds

Q: GGGGGCCGGGGGCGGGGAGGCGGG (structured_DNA) [Bcl3 WT 24-nt, annealed with KCl (G4)] was tested. Which Kd (SP1 [12]) did it give?
A: 2.36 nM

Q: And the Kd (SP1 [13])?
A: 19.1 nM

Q: Which Kd (SP1 [14]) does the source give for AGAGACCGGGGGCGGGGAGACGAG (structured_DNA) [PCNG4 Inter 1, annealed with KCl] here?
A: 24.5 nM

Q: Does GGGUCCGGGCCGGGUGGG (ssRNA) [G4 RNA annealed without KCl] bind (SP1 [15])?
A: binds
